Data on 68 molecules can be found in PubChem BioAssay AID1195 (EPA DSSTox, 2008).

The data set has as its system human maximum recommended daily dose, FDA database. In words: DSSTox (FDAMDD) FDA Maximum (Recommended) Daily Dose Database. The following applies: stronger effect = lower value. An outline of the steps: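 MRDD values come from clinical trials with daily oral dosing, usually for 3–12 months, for the average adult, in mg/day converted to mg/kg-bw/day assuming 60 kg. Antineoplastic mg/m2 doses are divided by 37. Activity score maps log10(1/MRDD mmol) onto 1–100.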

The mark [1] stands for this setting: TherapeuticCategory: antihypertensive.
[2] abbreviates: TherapeuticCategory: antineoplastic.
Where [3] appears, read: TherapeuticCategory: narcotic analgesic.
Setting [4] is: TherapeuticCategory: antibacterial.
The mark [5] stands for this setting: TherapeuticCategory: antiamebic.
Where [6] appears, read: TherapeuticCategory: antiemetic.
Setting [7] is: TherapeuticCategory: antianginal, antihypertensive.
The mark [8] stands for this setting: TherapeuticCategory: anticonvulsant.
Setting [9] is: TherapeuticCategory: antipsychotic.
Where [10] appears, read: TherapeuticCategory: antispasmodic.

As to `COc1ccc2c(c1)c(CC(=O)OCC(=O)O)c(C)n2C(=O)c1ccc(Cl)cc1`, under “TherapeuticCategory: anti inflammatory”, the maximum recommended daily dose (mmol/kg-bw/day) was 0.00721.
Turning to `CCCCC(=O)N(Cc1ccc(-c2ccccc2-c2nn[nH]n2)cc1)[C@@H](C(=O)O)C(C)C`, the maximum recommended daily dose (mmol/kg-bw/day) under setting [1] is 0.0122.
In the case of `S=c1nc[nH]c2nc[nH]c12`, the maximum recommended daily dose (mmol/kg-bw/day) under setting [2] is 0.0164.
For `CCOC(=O)[C@]1(c2ccccc2)CCC=C[C@H]1N(C)C`, the maximum recommended daily dose (mmol/kg-bw/day) under setting [3] was 0.0122.
`O=C(Cn1cnnn1)N[C@@H]1C(=O)N2C(C(=O)O)=C(CSc3nncs3)CS[C@H]12`: the maximum recommended daily dose (mmol/kg-bw/day) under setting [4] is 0.151.
Turning to `CCOC(C)=O`, under “TherapeuticCategory: none”, the maximum recommended daily dose (mmol/kg-bw/day) is 0.284.
Take `O=C(O)c1cccnc1`: the maximum recommended daily dose (mmol/kg-bw/day) (TherapeuticCategory: vitamin) was 0.102.
For `C=CCN1CC[C@]23c4c5ccc(O)c4O[C@H]2[C@@H](O)C=C[C@H]3[C@H]1C5`, the maximum recommended daily dose (mmol/kg-bw/day) (TherapeuticCategory: narcotic antagonist) is 0.00214.
As for `Nc1ccn([C@@H]2O[C@H](CO)[C@@H](O)C2O)c(=O)n1` (stereo partly drawn), the maximum recommended daily dose (mmol/kg-bw/day) (TherapeuticCategory: antineoplastic, antiviral) was 0.0111.
Turning to `CCN(CC)CCOC(=O)C1(c2ccccc2)CCCC1`, the maximum recommended daily dose (mmol/kg-bw/day) (TherapeuticCategory: antitussive) was 0.0173.
With `CC[C@]1(O)CC[C@H]2[C@@H]3CCC4=CC(=O)CC[C@@H]4[C@H]3CC[C@@]21C`, under “TherapeuticCategory: androgen”, the maximum recommended daily dose (mmol/kg-bw/day) was 0.00165.
For `CC(C)NNC(=O)c1ccncc1`, the maximum recommended daily dose (mmol/kg-bw/day) (TherapeuticCategory: monoamine oxidase inhibitor, antidepressant) is 0.0139.
For the molecule `CC1(C)S[C@@H]2[C@H](NC(=O)[C@H](C(=O)O)c3ccsc3)C(=O)N2[C@H]1C(=O)O`, the maximum recommended daily dose (mmol/kg-bw/day) under setting [4] was 0.78.
On to `C[N+](C)(C)CCOC(=O)CCC(=O)OCC[N+](C)(C)C`, for which the maximum recommended daily dose (mmol/kg-bw/day) (TherapeuticCategory: skeletal muscle relaxant) is 0.00304.
Consider `CC(=O)CC(c1ccccc1)c1c(O)c2ccccc2oc1=O` (stereo not drawn), for which the maximum recommended daily dose (mmol/kg-bw/day) (TherapeuticCategory: anticoagulant) was 0.000542.
With `CN(C)CCOC(C)(c1ccccc1)c1ccc(Cl)cc1` (stereo not drawn), under setting [5], the maximum recommended daily dose (mmol/kg-bw/day) is 0.123.
For the molecule `NC[C@H]1O[C@H](O[C@H]2[C@H](O)[C@@H](O[C@H]3O[C@H](CO)[C@@H](O)[C@H](N)[C@H]3O)[C@H](N)C[C@@H]2N)[C@H](O)[C@@H](O)[C@@H]1O`, the maximum recommended daily dose (mmol/kg-bw/day) under setting [4] is 0.031.
As for `Cc1cc(C(=O)NCCc2ccc(S(=O)(=O)NC(=O)NN3CCCCCC3)cc2)no1`, the maximum recommended daily dose (mmol/kg-bw/day) (TherapeuticCategory: antidiabetic) is 0.000594.
As to `CN[C@@H](C)[C@@H](O)c1ccccc1`, the maximum recommended daily dose (mmol/kg-bw/day) (TherapeuticCategory: l-form as bronchodilator, d-form as decongestant) was 0.0242.
For `C[C@@]12CCCCC[C@@H](Cc3ccc(O)cc31)[C@@H]2N`, under setting [3], the maximum recommended daily dose (mmol/kg-bw/day) was 0.000681.
Take `CN1[C@@H]2CCC[C@H]1CC(NC(=O)c1nn(C)c3ccccc13)C2` (stereo partly drawn): the maximum recommended daily dose (mmol/kg-bw/day) under setting [6] is 3.2e-05.
For `CNC[C@H](O)c1cccc(O)c1`, for the setting “TherapeuticCategory: mydriatic, decongestant”, the maximum recommended daily dose (mmol/kg-bw/day) was 0.00498.
With `CC(C)CCON=O`, where the note is “TherapeuticCategory: none”, the maximum recommended daily dose (mmol/kg-bw/day) was 0.0427.
On to `Cn1cnc([N+](=O)[O-])c1Sc1ncnc2nc[nH]c12`, for which the maximum recommended daily dose (mmol/kg-bw/day) (TherapeuticCategory: immunosuppressant, antirheumatic) was 0.018.
In the case of `C/C(=C(/CCO)SSCC1CCCO1)N(C=O)Cc1cnc(C)nc1N` (stereo not drawn), the maximum recommended daily dose (mmol/kg-bw/day) (TherapeuticCategory: enzyme cofactor) is 0.00419.
Turning to `Nc1nc2ncc(CNc3ccc(C(=O)N[C@@H](CCC(=O)O)C(=O)O)cc3)nc2c(=O)[nH]1`, the maximum recommended daily dose (mmol/kg-bw/day) (TherapeuticCategory: hematopoetic) is 3.01e-05.
On to `COC(=O)C1=C(C)NC(C)=C(C(=O)OCCN(C)Cc2ccccc2)C1c1cccc([N+](=O)[O-])c1` (stereo not drawn), for which the maximum recommended daily dose (mmol/kg-bw/day) under setting [7] was 0.00417.
As for `CC(=O)Oc1ccc(C2(c3ccc(OC(C)=O)cc3)C(=O)Nc3ccccc32)cc1`, the maximum recommended daily dose (mmol/kg-bw/day) (TherapeuticCategory: cathartic) was 0.00208.
On to `CC[C@]1(O)CC[C@H]2[C@@H]3CCC4=CCCC[C@@H]4[C@H]3CC[C@@]21C`, for which, under “TherapeuticCategory: anabolic”, the maximum recommended daily dose (mmol/kg-bw/day) is 0.000231.
`C[C@]12C=CC(=O)C=C1CC[C@@H]1[C@@H]2[C@@H](O)C[C@@]2(C)[C@H]1CC[C@]2(O)C(=O)COC(=O)CCCc1ccc(N(CCCl)CCCl)cc1`: the maximum recommended daily dose (mmol/kg-bw/day) under setting [2] was 0.00515.
`C=C1/C(=C\C=C2/CCC[C@]3(C)[C@@H]([C@H](C)CCCC(C)(C)O)CC[C@@H]23)C[C@@H](O)C[C@@H]1O`: under “TherapeuticCategory: calcium regulator”, the maximum recommended daily dose (mmol/kg-bw/day) is 1.2e-07.
`CCN(CC)CCOC(=O)C(c1ccccc1)c1ccccc1`: for the setting “TherapeuticCategory: anticholinergic”, the maximum recommended daily dose (mmol/kg-bw/day) is 0.0241.
Take `COc1cccc([C@@]2(O)CCCC[C@@H]2CN(C)C)c1`: the maximum recommended daily dose (mmol/kg-bw/day) (TherapeuticCategory: analgesic) was 0.0253.
As for `CC(C)COCC(CN(Cc1ccccc1)c1ccccc1)N1CCCC1` (stereo not drawn), the maximum recommended daily dose (mmol/kg-bw/day) (TherapeuticCategory: antianginal) is 0.0182.
Regarding `NCCNCCNCCN`, the maximum recommended daily dose (mmol/kg-bw/day) (TherapeuticCategory: chelating agent, treatmemt of Wilson's disease) is 0.228.
For the molecule `O=C1Nc2ccc(Cl)cc2C(c2ccccc2)=NC1O` (stereo not drawn), the maximum recommended daily dose (mmol/kg-bw/day) (TherapeuticCategory: anxiolytic) is 0.00698.
As for `Nc1nc2c(c(=O)[nH]1)N(C=O)C(CNc1ccc(C(=O)NC(CCC(=O)O)C(=O)O)cc1)CN2` (stereo not drawn), the maximum recommended daily dose (mmol/kg-bw/day) (TherapeuticCategory: antidote to folic acid antagonists, antianemic) was 0.0114.
As for `N[C@@H](Cc1ccc(O)cc1)C(=O)O`, the maximum recommended daily dose (mmol/kg-bw/day) (TherapeuticCategory: none) is 0.552.
As to `O=C(Cn1c(=O)sc2ccc(Cl)cc21)N1CCN(CCO)CC1`, where the note is “TherapeuticCategory: antiasthmatic, anti inflammatry”, the maximum recommended daily dose (mmol/kg-bw/day) is 0.0141.
Consider `CCOC(=O)c1ccc(N)cc1`, for which the maximum recommended daily dose (mmol/kg-bw/day) (TherapeuticCategory: topical anesthetic) is 0.00726.
For `O=C1CN=C(c2ccccc2Cl)c2cc([N+](=O)[O-])ccc2N1`, the maximum recommended daily dose (mmol/kg-bw/day) under setting [8] is 0.000421.
In the case of `Cc1ccc(N(CC2=NCCN2)c2cccc(O)c2)cc1`, the maximum recommended daily dose (mmol/kg-bw/day) (TherapeuticCategory: antihypertensive, diagnostic aid) was 0.000594.
`CC(C)(C)NC(=O)[C@H]1CC[C@H]2[C@@H]3CC[C@H]4NC(=O)C=C[C@]4(C)[C@H]3CC[C@]12C`: the maximum recommended daily dose (mmol/kg-bw/day) (TherapeuticCategory: prostatic hypertrophy treatment) was 0.000224.
As for `CCN(CC)Cc1cc(Nc2ccnc3cc(Cl)ccc23)ccc1O`, the maximum recommended daily dose (mmol/kg-bw/day) (TherapeuticCategory: antimalarial) was 0.00936.
Take `OC(CCCN1CCCCC1)(c1ccccc1)c1ccccc1`: the maximum recommended daily dose (mmol/kg-bw/day) under setting [6] is 0.0162.
Regarding `CCC1(c2ccccc2)C(=O)NCNC1=O`, under setting [8], the maximum recommended daily dose (mmol/kg-bw/day) was 0.0382.
As to `CCc1c(C)[nH]c2c1C(=O)C(CN1CCOCC1)CC2` (stereo not drawn), the maximum recommended daily dose (mmol/kg-bw/day) under setting [9] was 0.0136.
With `C[N+](C)(C)CCOC(N)=O`, the maximum recommended daily dose (mmol/kg-bw/day) (TherapeuticCategory: cholinergic, miotic) was 0.000365.
On to `CCO[C@@H]1O[C@H](C(COCc2ccccc2)OCc2ccccc2)[C@H](OCc2ccccc2)[C@H]1O` (stereo partly drawn), for which the maximum recommended daily dose (mmol/kg-bw/day) (TherapeuticCategory: sclerosing agent) was 0.0278.
On to `Cc1cc2cc3c(C)cc(=O)oc3c(C)c2o1`, for which, where the note is “TherapeuticCategory: pigmentation agent”, the maximum recommended daily dose (mmol/kg-bw/day) was 0.000732.
For the molecule `CN(C(=O)C(Cl)Cl)c1ccc(O)cc1`, the maximum recommended daily dose (mmol/kg-bw/day) under setting [5] was 0.107.
With `CCOC(=O)C1=C(COCCN)NC(C)=C(C(=O)OC)C1c1ccccc1Cl` (stereo not drawn), the maximum recommended daily dose (mmol/kg-bw/day) under setting [7] was 0.000408.
In the case of `OCc1cc(C(O)CNCCCCCCOCCCCc2ccccc2)ccc1O` (stereo not drawn), the maximum recommended daily dose (mmol/kg-bw/day) (TherapeuticCategory: bronchodilator) is 3.37e-06.
Take `Cc1c(-c2ccccc2)oc2c(C(=O)OCCN3CCCCC3)cccc2c1=O`: the maximum recommended daily dose (mmol/kg-bw/day) under setting [10] was 0.034.
Regarding `C[C@H]1CCC[C@H](O)CCCCCc2cc(O)cc(O)c2C(=O)O1`, the maximum recommended daily dose (mmol/kg-bw/day) (TherapeuticCategory: anabolic) was 1.55e-06.
Turning to `CC(=O)OCC(=O)[C@@]1(O)CC[C@H]2[C@@H]3CCC4=CC(=O)CC[C@]4(C)[C@@]3(F)[C@@H](O)C[C@@]21C`, for the setting “TherapeuticCategory: mineralcorticoid”, the maximum recommended daily dose (mmol/kg-bw/day) was 3.95e-06.
Regarding `NS(=O)(=O)c1cc2c(cc1Cl)NC(C1CC3C=CC1C3)NS2(=O)=O` (stereo not drawn), under “TherapeuticCategory: diuretic, antihypertensive”, the maximum recommended daily dose (mmol/kg-bw/day) was 0.000256.
In the case of `O=C(CCCN1CC=C(n2c(=O)[nH]c3ccccc32)CC1)c1ccc(F)cc1`, the maximum recommended daily dose (mmol/kg-bw/day) under setting [9] was 0.000725.
With `CN1CCN(CCCN2c3ccccc3Sc3ccc(S(=O)(=O)N(C)C)cc32)CC1`, where the note is “TherapeuticCategory: neuroleptic, antiemetic”, the maximum recommended daily dose (mmol/kg-bw/day) was 0.00149.
For `CCC1(CC)C(=O)NCC(C)C1=O` (stereo not drawn), the maximum recommended daily dose (mmol/kg-bw/day) (TherapeuticCategory: sedative, hypnotic) is 0.0364.
Take `Cc1ccc(O)c([C@H](CCN(C(C)C)C(C)C)c2ccccc2)c1`: the maximum recommended daily dose (mmol/kg-bw/day) (TherapeuticCategory: cholinergic (acetyl-choline) receptor blockers) was 0.0246.
Consider `CC(S)C(=O)NCC(=O)O` (stereo not drawn), for which the maximum recommended daily dose (mmol/kg-bw/day) (TherapeuticCategory: hepatoprotectant, mucolytic, antidote to heavy metal poisoning) is 0.204.
For `CCN(C(C)=O)c1cccc(-c2ccnc3c(C#N)cnn23)c1`, the maximum recommended daily dose (mmol/kg-bw/day) (TherapeuticCategory: hypnotic, sedative) is 0.00164.
For `CCOC(=O)[C@H](CCc1ccccc1)N[C@@H](C)C(=O)N1Cc2cc(OC)c(OC)cc2C[C@H]1C(=O)O`, for the setting “TherapeuticCategory: antihypertensive, ACE inhibitor”, the maximum recommended daily dose (mmol/kg-bw/day) is 0.00167.
Turning to `COc1cc2nc(N3CCN(C(=O)C4COc5ccccc5O4)CC3)nc(N)c2cc1OC` (stereo not drawn), under setting [1], the maximum recommended daily dose (mmol/kg-bw/day) is 0.000591.
Take `CCC(COC(=O)c1cc(OC)c(OC)c(OC)c1)(c1ccccc1)N(C)C` (stereo not drawn): under setting [10], the maximum recommended daily dose (mmol/kg-bw/day) was 0.0258.
Regarding `CCC(=O)Oc1ccc2c(c1)CC[C@@H]1[C@@H]2CC[C@]2(C)[C@@H](OC(=O)CC)CC[C@@H]12`, the maximum recommended daily dose (mmol/kg-bw/day) (TherapeuticCategory: estrogen) is 0.0013.
Regarding `CC(C)CC(N(C)C)C1(c2ccc(Cl)cc2)CCC1` (stereo not drawn), the maximum recommended daily dose (mmol/kg-bw/day) (TherapeuticCategory: anorexic) was 0.000893.
